The source made the active and inactive calls.
Legend:
[1] = molecular target: Voltage-dependent T-type calcium channel subunit alpha-1H (Homo sapiens, UniProt O95180); format: functional;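 also: channel activity triggered by adding a high calcium stimulation buffer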
[2] = A Cell Based Secondary Assay To Explore Cytotoxicity of Compounds that Sensitize Mycobacterium Tuberculosis to Beta-Lactam Antibiotics.; format: functional
Prothrombin = Prothrombin (Homo sapiens, UniProt P00734); experiment: Thrombin 1536 HTS Dose Response Confirmation. [Related pubchem assays: 1046 (Thrombin 1536 HTS; hits were confirmed in this assay)]; format: functional
[3] = molecular target: T1, Replicative DNA helicase DnaB (Mycobacterium tuberculosis, UniProt P9WMR3); experiment: DnaB intein splicing inhibitors, dose response, biochemical, cell-free fluorescence (AID 449749); format: functional
T1 sequence (P9WMR3 whole entry): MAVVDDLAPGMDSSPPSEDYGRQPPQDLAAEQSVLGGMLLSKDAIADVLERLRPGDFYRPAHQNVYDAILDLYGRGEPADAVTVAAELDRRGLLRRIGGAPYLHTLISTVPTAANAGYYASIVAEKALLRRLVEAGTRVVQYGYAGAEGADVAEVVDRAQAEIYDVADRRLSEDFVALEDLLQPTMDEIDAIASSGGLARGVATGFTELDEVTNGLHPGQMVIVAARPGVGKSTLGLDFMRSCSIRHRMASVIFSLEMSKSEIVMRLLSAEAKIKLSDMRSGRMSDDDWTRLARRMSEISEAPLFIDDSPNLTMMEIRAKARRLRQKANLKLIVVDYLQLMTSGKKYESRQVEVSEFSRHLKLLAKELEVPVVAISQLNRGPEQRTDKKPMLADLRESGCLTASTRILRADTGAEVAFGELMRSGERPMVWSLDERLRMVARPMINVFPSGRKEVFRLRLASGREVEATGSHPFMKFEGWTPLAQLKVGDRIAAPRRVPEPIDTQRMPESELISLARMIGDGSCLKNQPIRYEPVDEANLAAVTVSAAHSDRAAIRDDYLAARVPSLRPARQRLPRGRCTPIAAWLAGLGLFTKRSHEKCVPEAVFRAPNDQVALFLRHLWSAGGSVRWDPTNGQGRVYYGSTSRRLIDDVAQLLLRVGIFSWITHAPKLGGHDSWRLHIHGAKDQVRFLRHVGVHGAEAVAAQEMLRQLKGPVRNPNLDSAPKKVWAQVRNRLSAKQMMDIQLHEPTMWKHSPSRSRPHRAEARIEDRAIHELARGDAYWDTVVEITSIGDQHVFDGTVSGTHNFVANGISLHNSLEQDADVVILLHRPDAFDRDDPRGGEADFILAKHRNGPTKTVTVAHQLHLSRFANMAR

Protein RecA = molecular target: T2, Protein RecA (Mycobacterium tuberculosis, UniProt P9WHJ3); experiment: Fluorescence Cell-Free Homogeneous Dose Retest to Identify Inhibitors of RecA-Intein Splicing Activity. [Related pubchem assays (depositor defined):AID2097, AID2223, AID489010, AID492950]; format: functional
T2 sequence (P9WHJ3 whole entry): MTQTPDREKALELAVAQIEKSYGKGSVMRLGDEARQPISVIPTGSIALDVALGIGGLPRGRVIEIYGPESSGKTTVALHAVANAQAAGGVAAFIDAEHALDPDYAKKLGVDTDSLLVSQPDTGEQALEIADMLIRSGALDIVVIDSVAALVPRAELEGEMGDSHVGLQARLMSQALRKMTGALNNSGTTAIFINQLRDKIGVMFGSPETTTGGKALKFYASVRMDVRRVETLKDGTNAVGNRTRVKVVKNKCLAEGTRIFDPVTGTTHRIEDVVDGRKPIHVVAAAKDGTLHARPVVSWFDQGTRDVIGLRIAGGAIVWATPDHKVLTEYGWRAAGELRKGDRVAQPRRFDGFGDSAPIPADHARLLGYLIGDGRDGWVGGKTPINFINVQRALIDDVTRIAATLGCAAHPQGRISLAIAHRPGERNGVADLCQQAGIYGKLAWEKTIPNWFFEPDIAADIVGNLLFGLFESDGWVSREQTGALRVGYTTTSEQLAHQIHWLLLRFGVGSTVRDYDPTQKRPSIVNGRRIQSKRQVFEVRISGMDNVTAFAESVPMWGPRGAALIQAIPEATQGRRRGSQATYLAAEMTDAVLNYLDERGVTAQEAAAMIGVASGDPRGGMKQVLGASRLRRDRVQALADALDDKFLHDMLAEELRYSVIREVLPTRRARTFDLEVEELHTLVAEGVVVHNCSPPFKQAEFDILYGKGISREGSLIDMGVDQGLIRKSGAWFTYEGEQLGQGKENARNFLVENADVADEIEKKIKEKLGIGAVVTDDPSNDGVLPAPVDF

Coagulation factor XII = molecular target: T3, Coagulation factor XII (Homo sapiens, UniProt P00748); format: functional;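 also: activated factor XIIa alpha cleaving a fluorogenic AMC peptide substrate; inhibitor potency from loss of enzyme activity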
T3 sequence (P00748 whole entry): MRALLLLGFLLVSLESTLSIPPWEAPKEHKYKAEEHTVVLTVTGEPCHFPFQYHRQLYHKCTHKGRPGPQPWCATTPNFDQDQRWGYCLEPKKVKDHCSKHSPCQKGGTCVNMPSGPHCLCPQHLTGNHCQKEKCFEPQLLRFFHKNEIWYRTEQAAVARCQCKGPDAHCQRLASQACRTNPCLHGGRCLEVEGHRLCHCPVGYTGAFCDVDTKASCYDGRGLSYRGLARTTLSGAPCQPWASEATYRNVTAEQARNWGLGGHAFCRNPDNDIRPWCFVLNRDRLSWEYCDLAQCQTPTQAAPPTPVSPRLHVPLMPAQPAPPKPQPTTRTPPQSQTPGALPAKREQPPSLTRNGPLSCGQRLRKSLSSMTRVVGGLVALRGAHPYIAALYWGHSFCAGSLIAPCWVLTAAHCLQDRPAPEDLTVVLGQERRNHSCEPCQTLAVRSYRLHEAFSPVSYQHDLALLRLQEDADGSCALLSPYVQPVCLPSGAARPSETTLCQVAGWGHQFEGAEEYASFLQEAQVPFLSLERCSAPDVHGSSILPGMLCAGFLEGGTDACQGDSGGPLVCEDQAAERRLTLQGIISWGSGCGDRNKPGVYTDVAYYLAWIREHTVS

[4] = molecular target: T4, Voltage-gated N-type calcium channel alpha-1B subunit/Amyloid beta A4 precursor protein-binding family A member 1 (Homo sapiens, UniProt Q00975+Q02410); format: protein assay
[5] = molecular target: T4, Voltage-gated N-type calcium channel alpha-1B subunit/Amyloid beta A4 precursor protein-binding family A member 1; format: protein assay; remark: listed apart in the source
H9c2 = experiment: cells; format: functional, cell-based; settings: Rattus norvegicus, H9c2, Myocardium;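 also: confirmatory concentration-response retest of ultra-high-throughput screening hits for modulation of myocardial damage; cell death induced by hydrogen peroxide oxidative stress; compound pretreatment for 60 min then peroxide exposure for 2 h; potency is for protecting the cells against peroxide damage rather than for killing them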
Leucine aminopeptidase = molecular target: T5, Leucine aminopeptidase (Plasmodium falciparum 3D7, UniProt Q8IL11); experiment: P. falciparum M17LAP inhibitors, primary screen, biochemical, fluorogenic H-Leu-NHMec substrate, 1536-well (AID 1619); format: functional
T5 sequence (Q8IL11 whole entry): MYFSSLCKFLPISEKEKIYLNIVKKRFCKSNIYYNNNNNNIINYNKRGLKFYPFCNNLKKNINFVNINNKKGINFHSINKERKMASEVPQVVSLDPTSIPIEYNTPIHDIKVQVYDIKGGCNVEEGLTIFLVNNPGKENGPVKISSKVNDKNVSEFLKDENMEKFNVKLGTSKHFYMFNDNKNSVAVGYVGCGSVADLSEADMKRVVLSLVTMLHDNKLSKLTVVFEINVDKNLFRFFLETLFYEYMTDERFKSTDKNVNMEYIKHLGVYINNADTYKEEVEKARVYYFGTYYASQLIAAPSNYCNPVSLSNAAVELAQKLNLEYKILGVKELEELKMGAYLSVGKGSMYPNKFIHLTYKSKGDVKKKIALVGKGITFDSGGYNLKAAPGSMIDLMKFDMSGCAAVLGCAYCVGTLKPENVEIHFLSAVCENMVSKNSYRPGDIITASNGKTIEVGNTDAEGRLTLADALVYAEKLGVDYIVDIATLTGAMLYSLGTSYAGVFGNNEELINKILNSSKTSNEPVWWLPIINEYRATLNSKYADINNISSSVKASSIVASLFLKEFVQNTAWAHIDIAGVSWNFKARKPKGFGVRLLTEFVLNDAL

[6] = molecular target: Eukaryotic translation initiation factor 4E (Mus musculus, UniProt P63073); experiment: blockers of eIF4G binding by eIF4E – biochemical, TR-FRET, dose response (AID 855); format: functional;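 also: potency for disrupting eIF4E binding to eIF4GI seen as loss of FRET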
[7] = viability of PTEN-deleted HCT116 cells – cell-based, HCT116 PTEN knockout, dose response (AID 1047); format: functional;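 also: HCT116 colon tumor cells with PTEN knocked out; cells exposed to compound for 60 hours before readout; potency for loss of cell viability measured by luminescence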
[8] = viability of HCT116 lacking mutant beta-catenin – cell-based, human colon tumor, dose response (AID 1045); format: functional;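 also: HCT116 colon tumor cells with beta catenin knocked out; cells exposed to compound for 60 hours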
[9] = activation of miR-122 Renilla sensor silencing – cell-based, Huh7 psiCHECK-miR122, Renilla luciferase, cherry-picked, dose response (AID 651956); format: functional;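 also: huh7 hepatoma cells stably carrying a psiCHECK-2 miR-122 sensor plasmid; renilla luciferase signal reporting endogenous miR-122 activity after 48 h compound exposure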
[10] = general mammalian cell viability loss – activator set, cherry-pick, cytotoxicity control for miR-122 modulator project, dose response (AID 720690); format: functional, cell-based;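 also: HEK293T human cells scored for general mammalian cytotoxicity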
[11] = luciferase reporter signal suppression in cells – H4 neuroglioma cells, luminescence, dose response (AID 1990); format: functional, cell-based
[12] = Luminescence Cell-Based Dose Response HTS to Identify Inhibitors of 5'UTR Stem-Loop Driven Prion Protein mRNA Translation in H4 Neuroglioblastoma Cells. [Related pubchem assays: 1827 (Project Summary), 1813 (Primary HTS)]; format: functional
[13] = alpha-synuclein stem-loop luciferase translation blockers – H4 neuroglioma cells, luminescence, confirmation (AID 1988); format: functional, cell-based
[14] = THP-1 cell cytotoxicity, dose response, cytotoxicity control for non-replicating M. tuberculosis project (AID 489025); format: functional
[15] = HepG2 cell cytotoxicity, dose response, cytotoxicity control for non-replicating M. tuberculosis project (AID 489018); format: functional; settings: Mycobacterium tuberculosis
cells = format: functional

Voltage-dependent T-type calcium channel subunit alpha-1H, sequence (O95180 whole entry): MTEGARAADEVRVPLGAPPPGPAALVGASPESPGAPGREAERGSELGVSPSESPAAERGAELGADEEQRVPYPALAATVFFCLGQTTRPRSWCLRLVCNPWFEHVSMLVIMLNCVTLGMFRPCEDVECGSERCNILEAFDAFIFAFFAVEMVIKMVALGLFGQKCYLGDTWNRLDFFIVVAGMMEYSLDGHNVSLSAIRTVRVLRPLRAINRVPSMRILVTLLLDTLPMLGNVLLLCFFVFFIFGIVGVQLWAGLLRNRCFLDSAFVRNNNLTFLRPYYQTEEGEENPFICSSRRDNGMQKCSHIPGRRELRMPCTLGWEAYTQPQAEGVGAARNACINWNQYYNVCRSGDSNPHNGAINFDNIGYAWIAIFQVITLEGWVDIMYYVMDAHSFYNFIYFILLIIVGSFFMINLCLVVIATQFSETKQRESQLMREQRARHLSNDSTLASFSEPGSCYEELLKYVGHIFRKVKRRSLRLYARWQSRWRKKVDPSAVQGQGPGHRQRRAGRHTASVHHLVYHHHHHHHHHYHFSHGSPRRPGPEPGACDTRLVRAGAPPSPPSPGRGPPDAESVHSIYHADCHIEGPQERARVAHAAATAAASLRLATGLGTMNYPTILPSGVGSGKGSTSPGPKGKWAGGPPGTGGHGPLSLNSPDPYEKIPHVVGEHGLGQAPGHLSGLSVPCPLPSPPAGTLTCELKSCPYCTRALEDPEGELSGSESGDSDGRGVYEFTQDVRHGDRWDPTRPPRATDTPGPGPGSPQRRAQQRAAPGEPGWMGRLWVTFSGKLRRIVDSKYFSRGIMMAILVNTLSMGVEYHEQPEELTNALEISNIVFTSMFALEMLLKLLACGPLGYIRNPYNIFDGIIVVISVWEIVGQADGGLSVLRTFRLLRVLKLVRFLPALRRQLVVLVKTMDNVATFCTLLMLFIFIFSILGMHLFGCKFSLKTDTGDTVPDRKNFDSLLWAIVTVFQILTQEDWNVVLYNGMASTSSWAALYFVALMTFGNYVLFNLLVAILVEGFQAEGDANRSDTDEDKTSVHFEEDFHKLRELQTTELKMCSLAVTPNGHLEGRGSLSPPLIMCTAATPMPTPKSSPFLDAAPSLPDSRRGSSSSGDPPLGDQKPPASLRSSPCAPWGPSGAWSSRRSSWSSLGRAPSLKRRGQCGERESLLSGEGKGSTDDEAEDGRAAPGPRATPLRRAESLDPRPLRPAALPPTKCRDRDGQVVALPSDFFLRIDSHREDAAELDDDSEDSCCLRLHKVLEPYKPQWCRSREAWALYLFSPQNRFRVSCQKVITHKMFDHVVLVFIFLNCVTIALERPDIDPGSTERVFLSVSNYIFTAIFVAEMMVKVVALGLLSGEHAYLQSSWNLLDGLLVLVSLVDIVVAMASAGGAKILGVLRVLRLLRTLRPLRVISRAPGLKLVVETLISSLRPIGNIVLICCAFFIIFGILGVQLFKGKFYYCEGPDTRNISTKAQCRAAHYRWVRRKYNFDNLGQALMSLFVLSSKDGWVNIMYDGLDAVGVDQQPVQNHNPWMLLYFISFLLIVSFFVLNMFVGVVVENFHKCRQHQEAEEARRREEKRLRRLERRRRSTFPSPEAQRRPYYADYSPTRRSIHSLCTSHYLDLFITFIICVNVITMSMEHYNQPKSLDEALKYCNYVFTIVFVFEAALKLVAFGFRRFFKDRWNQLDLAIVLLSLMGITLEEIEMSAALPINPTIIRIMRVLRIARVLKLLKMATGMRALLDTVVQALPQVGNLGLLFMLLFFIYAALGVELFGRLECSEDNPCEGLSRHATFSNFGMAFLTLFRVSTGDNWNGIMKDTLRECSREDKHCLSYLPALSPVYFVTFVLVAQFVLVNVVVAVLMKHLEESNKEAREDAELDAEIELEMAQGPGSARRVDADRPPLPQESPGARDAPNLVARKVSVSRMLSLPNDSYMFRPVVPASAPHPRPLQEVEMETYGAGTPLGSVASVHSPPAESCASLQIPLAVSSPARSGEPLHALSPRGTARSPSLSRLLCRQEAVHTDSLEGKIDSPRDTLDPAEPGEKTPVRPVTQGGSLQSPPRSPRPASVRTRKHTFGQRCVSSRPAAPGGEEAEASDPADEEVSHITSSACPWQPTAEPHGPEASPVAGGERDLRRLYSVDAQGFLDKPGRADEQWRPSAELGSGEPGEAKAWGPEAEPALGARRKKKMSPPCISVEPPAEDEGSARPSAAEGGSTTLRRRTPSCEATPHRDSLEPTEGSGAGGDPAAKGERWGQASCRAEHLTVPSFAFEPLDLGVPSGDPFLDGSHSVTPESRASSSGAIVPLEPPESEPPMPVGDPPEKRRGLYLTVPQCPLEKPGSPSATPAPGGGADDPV
Eukaryotic translation initiation factor 4E, sequence (P63073 whole entry): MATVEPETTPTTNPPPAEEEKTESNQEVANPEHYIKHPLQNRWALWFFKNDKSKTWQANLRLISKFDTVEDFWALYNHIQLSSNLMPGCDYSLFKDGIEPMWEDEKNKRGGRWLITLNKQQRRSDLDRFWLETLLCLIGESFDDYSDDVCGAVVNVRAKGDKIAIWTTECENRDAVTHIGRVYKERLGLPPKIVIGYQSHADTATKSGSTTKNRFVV

SMILES: COc1ccc(NC(=O)c2ccco2)cc1NC(=O)c1cccc(OC(C)C)c1
- EC50 [1]: 8.24 µM (active)

SMILES: COc1ccc(-c2nn(-c3ccccc3)cc2C(=O)Nc2nccs2)cc1OC
- CC50 [2]: 32 µM (active)

SMILES: CCCOc1cccc(C(=O)N(Cc2ccco2)C2CCS(=O)(=O)C2)c1 (stereo not drawn)
- IC50 (Prothrombin): > 50 µM (not active)

SMILES: Cc1ccc(C)c(S(=O)(=O)NCCCN2CCOCC2)c1
- IC50 (Prothrombin): > 50 µM (not active)

SMILES: CCCCCCCN(C(=O)CCl)c1ccccc1C
- CC50 [2]: 2.82 µM (active)
- AC50 [3]: 7.86 µM (active)
- EC50 (Protein RecA): 0.893 µM (active)

SMILES: CC(C)NC(=O)c1ccc(C(C)C)cc1
- IC50 (Prothrombin): > 50 µM (not active)

SMILES: Fc1ccc(SCCc2ccccn2)cc1
- IC50 (Coagulation factor XII): > 50 µM (inactive)

SMILES: CCCCCOC(=O)Nc1nnc(CCCCC)s1
- IC50 (Coagulation factor XII): > 50 µM (inactive)

SMILES: CCc1cccc(NC(=O)C[S+]([O-])Cc2nc(-c3ccc(C)cc3)oc2C)c1 (stereo not drawn)
- EC50 [1]: 3.17 µM (active)

SMILES: O=C1NC(=O)N(Cc2ccccc2)C(=O)/C1=C/c1cnn(-c2ccccc2)c1
- IC50 [4]: 14.9 µM (active)
- IC50 [5]: > 50 µM (inactive)

SMILES: O=C(NCc1ccco1)c1scc2c1OCCO2
- IC50 (Coagulation factor XII): > 50 µM (inactive)

SMILES: CCOC(=O)[C@H]1[C@H]2COc3ccc(Br)cc3[C@@H]2N2C(=O)c3cc(OC)c(OC)cc3NC(=O)[C@@]12C
- CC50 [2]: > 40 µM (active)
- IC50 (H9c2): 15.5 µM (active)

SMILES: COc1ccc(CC(CC(=O)O)C(=O)Nc2ccccc2)cc1 (stereo not drawn)
- IC50 (Leucine aminopeptidase): 47.2 µM (active)

SMILES: Cc1cccc(NC(=S)NC2CCCC2)n1
- IC50 [4]: 7.9 µM (active)
- IC50 [5]: > 50 µM (inactive)

SMILES: O=C(NC1CCCCC1)N(Cc1ccccc1)Cc1ccco1
- EC50 [1]: 3.68 µM (active)

SMILES: Nc1ccc(S(=O)(=O)N2CCCc3ccccc32)cc1
- IC50 [6]: > 64 µM (inactive)

SMILES: O=C1CC(SCCc2nc3ccccc3[nH]2)C(=O)N1c1ccc(Cl)cc1 (stereo not drawn)
- EC50 [1]: 613 µM (active)

SMILES: O=C(NCCc1csc(-c2ccc(C(F)(F)F)cc2)n1)c1cccs1
- EC50 [1]: 4.14 µM (active)

SMILES: Cc1ccc(S(=O)(=O)Nc2nc3c(s2)C(=O)CC(C)(C)C3)cc1
- IC50 (Leucine aminopeptidase): 94.4 µM (active)

SMILES: Cc1ccc(C(=O)n2cnnc2N)cc1C
- IC50 (Prothrombin): 1.87 µM (active)

SMILES: CCOC(=O)c1c(NC(=S)NC(=O)c2ccc(Cn3cc(Cl)cn3)o2)sc2c1CCC(C)C2 (stereo not drawn)
- CC50 [2]: 12.2 µM (active)
- EC50 [7]: 5.87 µM (active)
- EC50 [8]: 6.18 µM (active)

SMILES: C/C=C/c1ccc2c(c1)O[C@@H](CN(C)CC1CCCC1)[C@H](C)CN([C@@H](C)CO)S2(=O)=O
- AC50 [9]: 42.1 µM (active)
- AC50 [10]: 22.4 µM (active)

SMILES: C[C@@H]1CN([C@@H](C)CO)C(=O)c2cccc(NC(=O)c3ccc(-c4nccs4)cc3)c2O[C@H]1CN(C)Cc1ccc2c(c1)OCO2
- AC50 [10]: 25.6 µM (active)

SMILES: CCCOc1ccc(CCC(=O)N/N=C/c2ccc([N+](=O)[O-])o2)cc1
- EC50 [11]: > 120 µM (not active)
- EC50 [12]: > 120 µM (not active)
- EC50 [13]: > 120 µM (not active)
- CC50 [14]: 13.1 µM (active)
- CC50 [15]: 19.3 µM (active)
- IC50 (cells): 5.03 µM (active)

SMILES: CC1(C)C2CC=C(/C=N/n3cnnc3)C1C2 (stereo not drawn)
- IC50 (Coagulation factor XII): > 50 µM (inactive)
